# Molecular target: T1, hBACE2 fused to EGFP in HEK293T cells (Homo sapiens, UniProt Q9Y5Z0)
# T1 construct: expressed in transfected cells; host or cells: HEK293T
# T1 sequence (Q9Y5Z0 63-518): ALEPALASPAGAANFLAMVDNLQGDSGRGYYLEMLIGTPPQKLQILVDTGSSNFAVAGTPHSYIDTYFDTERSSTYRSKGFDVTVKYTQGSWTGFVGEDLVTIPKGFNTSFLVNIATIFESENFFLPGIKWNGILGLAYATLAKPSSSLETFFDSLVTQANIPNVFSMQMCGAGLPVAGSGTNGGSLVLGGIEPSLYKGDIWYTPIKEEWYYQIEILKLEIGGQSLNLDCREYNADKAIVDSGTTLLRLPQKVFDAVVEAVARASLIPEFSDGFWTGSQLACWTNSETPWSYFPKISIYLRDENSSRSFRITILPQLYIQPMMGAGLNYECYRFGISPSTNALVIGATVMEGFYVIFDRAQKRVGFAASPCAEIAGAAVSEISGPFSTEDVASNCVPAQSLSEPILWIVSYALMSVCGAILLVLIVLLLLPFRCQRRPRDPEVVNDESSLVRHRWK
# Assay: Staining of transfected HEK293T cells, confocal imaging: BACE2
# Assay type: cell-based
# Protocol: Next, we explored the performance of the new Alexa-C3 compounds in living cells. Because of the rather hydrophilic properties, we exclusively targeted the cell membrane. To prevent intracellular accumulation, we first performed stainings at 4 °C arresting ATP-dependent endocytosis. […] All of the constructs were tagged at the C-terminus with either EGFP or mCherry to visualize subcellular expression. […] With these experiments, we want to exclude that a lack of staining is caused by an impaired accessibility of the protein by Alexa-C3 compounds. […] We then tested samples with BACE1 expression after fixation of the cells with paraformaldehyde (PFA).
# (D) All conjugates were also probed on cells fixed with 4% paraformaldehyde (PFA) for 15 min prior to staining. […] Scale bars represent 5 μm (A–D) and 20 μm (E). […] Samples were excited at 488, 561, and 633 nm, respectively.
# HEK293T cells (ATCC accession number CRL-11268) were maintained in Dulbecco's modified Eagle's medium (Sigma-Aldrich D6046) with 1g/L glucose, supplemented with 10% FCS (Merck) and 1% penicillin/streptomycin (PAA). CHO-K1 cells (ATCC #CCL-61) were maintained in modified phenol red free RPMI-1640 medium (Sigma-Aldrich, R7509), supplemented with 2 mM L-glutamine (Sigma-Aldrich, G7513), and 10% FCS (Merck). Cells were cultured at 37 °C in a 5% CO2 atmosphere. […]
structure (smiles),measurement,value
C[C@@H](NC(=O)c1cc(C(=O)N[C@@H](Cc2ccccc2)[C@H](O)CNC2CC2)cc(N(C)S(=O)(=O)CCCNC(=O)CCCCCC2(C)C(/C=C/C=C/C=C3/N(CCCS(=O)(=O)O)c4ccc(S(=O)(=O)O)cc4C3(C)C)=[N+](CCCS(=O)(=O)[O-])c3ccc(S(=O)(=O)O)cc32)c1)c1ccccc1 (stereo partly shown),staining of BACE2,not labeled

# Source: article PMC11215771 (Journal of Medicinal Chemistry, 2024)
